Experiments:
Assay type in all cases: cell-based, Influenza virus A/Udorn/72
A/M2-V27A = A/M2-V27A (Influenza A virus, UniProt P0DOF5, V27A); conditions: for inhibition of the mutant: 100 µM
A/M2-V27A/L38F = A/M2-V27A/L38F (Influenza A virus, UniProt P0DOF5, L38F/V27A)
A/M2-S31N = A/M2-S31N (Influenza A virus, UniProt P0DOF5, S31N)
A/M2-G34E = A/M2-G34E (Influenza A virus, UniProt P0DOF5, G34E)
A/M2-A30T = A/M2-A30T (Influenza A virus, UniProt P0DOF5, A30T)
A/M2-V27G = A/M2-V27G (Influenza A virus, UniProt P0DOF5, V27G)
A/M2-L26F = A/M2-L26F (Influenza A virus, UniProt P0DOF5, L26F)

SMILES | inhibition of the mutant (A/M2-V27A) | sensitivity of the double mutant channel (A/M2-V27A/L38F) | % remaining activity after application of 100 μM compound (A/M2-S31N) [%] | IC50 (A/M2-S31N) [mM] | % remaining activity after application of 100 μM compound (A/M2-V27A) [%] | IC50 (A/M2-V27A) [mM] | % remaining activity after application of 100 μM compound (A/M2-G34E) [%] | % remaining activity after application of 100 μM compound (A/M2-A30T) [%] | % remaining activity after application of 100 μM compound (A/M2-V27G) [%] | % remaining activity after application of 100 μM compound (A/M2-L26F) [%] | IC50 (A/M2-L26F) [mM] | inhibition of the mutant (A/M2-S31N)
NC12CC3CC(CC(C3)C1)C2 [Amantadine, amantadine] | less than 10% | not sensitive |  |  |  |  |  |  |  |  |  | 
C1CCC2(CC1)CCN(C1=NCCN1)CC2 [BL-1743, 2-[3-azaspiro([5],[5])undecanol]-2-imidazoline] | less than 10% | not sensitive | 100±0.67 | > 10 | 97.4±1.8 | > 10 | 89.8±6.9 | 102±2.3 | 82.9±9.3 | 89.2±4.8 | > 10 | 
NC1CCC2(CCCCC2)CC1 [Compound 8, spiro[5.5]undecan-3-amine] |  |  | 99.1±0.9 |  | 46.6±6.6 |  |  | 98.1±7.0 | 87.9±6.1 | 32.4±3.3 |  | little inhibition
